# Measured values: patent publication US9290473B2, “Inhibitors of phosphatidylinositol-3-kinase (PI3) and inducers of nitric oxide (NO)” (COUCIL OF SCIENTIFIC & INDUSTRIAL RESEARCH, priority 2009, dated 2016)
# Where two headings read alike, the source gives them in different places.
# Assays:
# [1] = tested on: chronic myeloid leukemia cell line K562; assay: Cell viability, trypan blue exclusion, K562; assay type: cell-based; conditions: Homo sapiens
# Source text: (§1) Following cancer cell lines were used: chronic myeloid leukemia cell lines K562, KU812; acute myeloid leukemia cell lines HL60, U937; T-lymphoblastic leukemia cell line Molt-4; prostate cancer cell line PC-3; breast cancer cell line MCF-7; pancreatic cancer cell line MIA PaCa-2. These cancer cell lines were maintained in tissue culture in standard growth medium containing 10% heat-inactivated fetal bovine serum (FBS). Normal human peripheral blood mononuclear cells (PBMC) were separated from whole blood by Ficoll/Hypaque density gradient centrifugation. Peripheral blood samples were collected from normal donors with due approval from the Human Ethics Committee of Indian Institute of Chemical Biology, Kolkata, India, and all experiments with human blood were conducted under an approved institutional Human Ethics committee protocol. Informed consent was provided according to the Declaration of Helsinki. Cancer cell lines and PBMC (5×10^3) in triplicate were incubated in 0.2 mL of standard growth medium containing 10% FBS with varying concentrations of test compounds of the present invention. After 72 hours of incubation, cells were collected by centrifugation (at 1000 g for 5 minutes) and cell-viability was determined by the trypan blue exclusion assay. At least 200 cells were examined in each sample. Because of monolayer culture, treated and untreated PC-3, MCF-7 and MIA PaCa-2 cells were detached from the wells by treatment with Cell Dissociation Solution (Sigma Chemical, St. Louis, Mo.) before counting. Data are represented as IC50 (minimum concentration required to inhibit the viability by 50%) in Table 5.
# [2] = tested on: chronic myeloid leukemia cell line KU812; assay: Cell viability, trypan blue exclusion, KU812; assay type: cell-based; conditions: Homo sapiens, 72 hours incubation
# Source text: as §1
# [3] = tested on: acute myeloid leukemia cell line HL60; assay: Cell viability, trypan blue exclusion, HL-60; assay type: cell-based; conditions: Homo sapiens
# Source text: as §1
# [4] = tested on: T-lymphoblastic leukemia cell line Molt-4; assay: Cell viability, trypan blue exclusion, Molt-4; assay type: cell-based, human
# Source text: as §1
# [5] = tested on: prostate cancer cell line PC-3; assay: Cell viability, trypan blue exclusion, PC-3; assay type: cell-based, human; conditions: 72 hours incubation
# Source text: as §1
# [6] = tested on: breast cancer cell line MCF-7; assay: Cell viability, trypan blue exclusion, MCF-7; assay type: cell-based, human
# Source text: as §1
# [7] = tested on: pancreatic cancer cell line MIA PaCa-2; assay: Cell viability, trypan blue exclusion, MIA PaCa-2; assay type: cell-based, human; conditions: read-out: Activity (IC50) MIAPaCa-2
# Source text: as §1
# [8] = tested on: Normal human peripheral blood mononuclear cells (PBMC); assay: Cell viability, trypan blue exclusion, normal PBMC; assay type: cell-based; conditions: 72 hours incubation
# Source text: as §1
# [9] = tested on: acute myeloid leukemia cell line U937; assay: Cell viability, trypan blue exclusion, U937; assay type: cell-based; conditions: Homo sapiens, U-937, 72 hours incubation
# Source text: as §1
# [10] = Sensitivity to spontaneous autooxidation (H2O2 level, TMB reagent); assay type: physicochemical; conditions: 30 µM, 30 min and 2 hr in medium alone, with and without Catalase; H2O2 in supernatant
# Protocol: Spontaneous autooxidation of compounds having phenolic groups produce reactive oxygen species like H2O2. The enzyme Catalase breaks down H2O2 to water, We therefore incubated Compound 1 and 7 (30 µM each) for 30 min and 2 hr in medium alone in the presence and absence of Catalase. Level of H2O2 in the supernatant was then measured as reported using 3,5,3′,5′-tetramethylbenzidine (TMB) reagent (Plant Physiology, 2004, 136, 3114-3123). FIG. 1 represents the data of sensitivity of spontaneous autooxidation of Compound 1 and Compound 7.
# U937 cells = assay: Morphology and apoptosis/necrosis in U937 cells (Giemsa; annexin V-FITC/PI flow cytometry); assay type: cell-based, human; conditions: Compound No.1 30 μM, Compound No.7 15 μM, 24 hours, annexin V-FITC/PI
# Protocol: U937 cells were treated with standard growth medium alone or with standard growth medium containing hydroxychavicol (30 μM) for 24 hours. Treated and untreated cells were stained with Giemsa and viewed under microscope (magnification ×1000). For measurement of apoptosis/necrosis, cells were left untreated or treated with Compound No. 1 (30 μM) or Compound No.7 (15 μM) for 24 hours. After washing, cells were stained with fluorescein isothiocyanate (FITC)-conjugated annexin V and propidium iodide (PI) and analysed in a flow cytometer (BD LSR, Becton Dickinson).
# FIG. 2B indicates flow cytometric determination of apoptosis and necrosis by Compound No.1 (hydroxychavicol) and Compound No.7. Apoptosis and necrosis of U937 cells were induced. Cells were left untreated (extreme left panel), or incubated with Compound No.1 (30 μM) (middle panel) or Compound No.7 (extreme right panel) (15 μM) for 24 hours and processed for flow cytometry after staining with annexin V-FITC and propidium iodide (PI). Viable cells are in the lower left quadrant (stained neither by annexin V nor by PI), early apoptotic cells (stained by annexin V only) are in the lower right quadrant, late-stage apoptotic cells (stained by both annexin V and PI) are in the upper right quadrant and the necrotic cells (stained by PI only) are in the upper left quadrant.
# normal human PBMC = assay: Apoptosis/necrosis of normal human PBMC by flow cytometry; assay type: cell-based; conditions: 30 μM, 24 hours
# Protocol: FIG. 2C indicates flow cytometric determination of apoptosis and necrosis of normal human PBMC by Compound 1 (30 μM) and Compound 7 (30 μM) after incubation for 24 hours.
# [11] = tested on: Ehrlich ascites carcinoma (EAC); assay: Ehrlich ascites carcinoma (EAC) model in vivo; conditions: 30 mg/kg body weight intraperitoneally thrice a week for three weeks, Swiss albino mice
# Source text: The in vitro studies indicate that hydroxychavicol and other compounds of the present invention induce killing of a variety of cancer cell lines including breast cancer cell line MCF-7 (Table 5). The MCF-7 cell line is of epithelial origin. Studies were extended in vivo in mouse model for a tumor of epithelial origin. Ehrlich ascites carcinoma is a tumor of epithelial origin (Cancer Research, 1958, 18, 1167-1185). EAC was established in Swiss albino mice as described (Biochemical and Biophysical Research Communications, 2001, 288, 658-665). Swiss albino mice were injected with EAC (2×10^6 cells/mouse) intraperitoneally. 2 days post-injection of tumor cells, these mice (5 per group) were injected intraperitoneally with Compound No. 1 (hydroxychavicol) (30 mg/kg body weight) or Compound No. 7 (30 mg/kg body weight) thrice a week for three weeks. One week after the last injection, mice were sacrificed, and viable cells from peritoneal cavity were counted microscopically. Vehicle (dimethyl sulphoxide [DMSO], 0.1%) was used as control.
# [12] = K562, 72 hours incubation, trypan blue exclusion, read-out: Activity (IC50) K562
# [13] = read-out: IC50 against chronic myeloid leukemia cancer cell lines (K562), range over both cell lines K562, KU812 and KU812 and over the listed compounds, read-out: IC50 against chronic myeloid leukemia cancer cell lines (K562, KU812)
# [14] = 72 hours incubation, trypan blue exclusion, read-out: Activity (IC50) HL-60
# [15] = range over both cell lines HL60 and U937 and over the listed compounds, read-out: IC50 against acute myeloid leukemia cancer cell line (HL60, U937)
# [16] = Homo sapiens, MOLT-4, 72 h, 72 hours incubation
# [17] = Homo sapiens, MCF7, 72 h, 72 hours incubation
# [18] = Homo sapiens, MIA PaCa-2, 72 h, 72 hours incubation
structure (smiles),measurement,setting,value
"C=CCc1cc(O)c(O)cc1CC=C [Compound 2, 4,5-diallylbenzene-1,2-diol]",IC50,[1]; [12],13 µM
same,IC50,[1]; [13],13 to 52 µM
same,IC50,[2],25 µM
same,IC50,[3]; [14],25 µM
same,IC50,[3]; [15],13 to 60 µM
same,IC50,[4]; 72 hours incubation,30 µM
same,IC50,[4]; [16],15 to 50 µM
same,IC50,"[5]; Homo sapiens, 72 h",25 to 70 µM
same,IC50,[6]; 72 hours incubation,40 µM
same,IC50,[6]; [17],25 to 70 µM
same,IC50,[7]; [18],30 to 70 µM
"C=CCc1ccc(O)c(O)c1CC=C [Compound 3, 3,4-diallylbenzene-1,2-diol]",IC50,[8],80 µM
same,IC50,[1]; [12],52 µM
same,IC50,[1]; [13],13 to 52 µM
same,IC50,[3]; [14],60 µM
same,IC50,[3]; [15],13 to 60 µM
same,IC50,[4]; 72 hours incubation,50 µM
same,IC50,"[5]; Homo sapiens, 72 h",25 to 70 µM
same,IC50,[6]; 72 hours incubation,70 µM
same,IC50,[7]; 72 hours incubation,70 µM
"C=CCc1ccc(OC(C)=O)c(OC(C)=O)c1 [Compound 7, 4-allyl-1,2-phenylene diacetate]",IC50,[8],70 µM
same,IC50,[1]; [12],13 µM
same,IC50,[1]; [13],13 to 52 µM
same,IC50,[2],15 µM
same,IC50,[3]; [14],15 µM
same,IC50,[3]; [15],13 to 60 µM
same,IC50,[9],13 µM
same,IC50,[4]; 72 hours incubation,15 µM
same,IC50,[4]; [16],15 to 50 µM
same,IC50,[5],25 µM
same,IC50,"[5]; Homo sapiens, 72 h",25 to 70 µM
same,IC50,[6]; 72 hours incubation,25 µM
same,IC50,[6]; [17],25 to 70 µM
same,IC50,[7]; 72 hours incubation,30 µM
same,IC50,[7]; [18],30 to 70 µM
same,Sensitivity to spontaneous autooxidation,[10],resistant to spontaneous autooxidation
same,Apoptosis and necrosis of U937 cells by flow cytometry,U937 cells,induce apoptosis and necrosis
same,Apoptosis and necrosis of normal human PBMC by flow cytometry,normal human PBMC,remained unaffected
same,In vivo efficacy against EAC tumor (viable cells from peritoneal cavity),[11],effective in vivo in destroying EAC tumor
"CC(C)(C=NO)c1ccc(O)c(O)c1 [Compound 9, 2-(3,4-dihydroxyphenyl)-2-methylpropanal oxime]",IC50,[8],100 µM
same,IC50,[1]; [12],64 µM
same,IC50,[2],70 µM
same,IC50,[3]; [14],64 µM
same,IC50,[4]; [16],70 µM
same,IC50,"[5]; Homo sapiens, 72 h",80 µM
same,IC50,[6]; [17],85 µM
same,IC50,[7]; [18],85 µM
"CC(C)(C#N)c1ccc(O)c(O)c1 [Compound 10, 2-(3,4-dihydroxyphenyl)-2-methylpropanenitrile]",IC50,[8],150 µM
same,IC50,[1]; [12],113 µM
same,IC50,[2],115 µM
same,IC50,[3]; [14],110 µM
same,IC50,[9],110 µM
same,IC50,"[5]; Homo sapiens, 72 h",120 µM
same,IC50,[6]; [17],100 µM
same,IC50,[7]; [18],120 µM
"CC(=O)ON=CC(C)(C)c1ccc(OC(C)=O)c(OC(C)=O)c1 [Compound 12, 4-(1-(acetoxyimino)-2-methylpropan-2-yl)-1,2-phenylene diacetate]",IC50,[8],250 µM
same,IC50,[1]; [12],194 µM
same,IC50,[2],190 µM
same,IC50,[3]; [14],190 µM
same,IC50,[9],190 µM
same,IC50,[4]; [16],190 µM
same,IC50,"[5]; Homo sapiens, 72 h",200 µM
same,IC50,[6]; [17],200 µM
"CCOC(=O)/C=C/C(C)(C)c1ccc(O)c(O)c1 [Compound 13, (E)-ethyl 4-(3,4-dihydroxyphenyl)-4-methylpent-2-enoate]",IC50,[8],75 µM
same,IC50,[1]; [12],50 µM
same,IC50,[1]; [13],13 to 52 µM
same,IC50,[2],45 µM
same,IC50,[3]; [14],50 µM
same,IC50,[3]; [15],13 to 60 µM
same,IC50,[9],45 µM
same,IC50,[4]; 72 hours incubation,45 µM
same,IC50,[5],70 µM
same,IC50,[6]; 72 hours incubation,70 µM
same,IC50,[7]; [18],30 to 70 µM
"C=CC(C)(C)c1ccc2c(c1)OCO2 [Compound 14, 5-(2-methylbut-3-en-2-yl)benzo[d][1,3]dioxole]",IC50,[8],800 µM
same,IC50,[1]; [12],657 µM
same,IC50,[2],650 µM
same,IC50,[3]; [14],670 µM
same,IC50,[9],670 µM
same,IC50,"[4]; Homo sapiens, MOLT-4, 72 hours incubation",650 µM
same,IC50,[5]; Homo sapiens,670 µM
same,IC50,"[6]; Homo sapiens, MCF7, 72 hours incubation",680 µM
same,IC50,"[7]; Homo sapiens, MIA PaCa-2, 72 hours incubation",680 µM
"C=CCc1cccc(O)c1O [Compound 16, 3-allyl-benzene-1,2-diol]",IC50,[8],30 µM
same,IC50,[1]; [12],20 µM
same,IC50,[1]; [13],13 to 52 µM
same,IC50,[2],25 µM
same,IC50,[3]; [14],20 µM
same,IC50,[3]; [15],13 to 60 µM
same,IC50,[9],25 µM
same,IC50,[4]; 72 hours incubation,20 µM
same,IC50,[4]; [16],15 to 50 µM
same,IC50,[5],30 µM
same,IC50,"[5]; Homo sapiens, 72 h",25 to 70 µM
same,IC50,[6]; [17],25 to 70 µM
same,IC50,[7]; [18],30 to 70 µM
"C=CCc1cccc(OC(C)=O)c1OC(C)=O [Compound 19, 3-allyl-1,2-phenylene diacetate]",IC50,[8],30 µM
same,IC50,[1]; [12],13 µM
same,IC50,[2],20 µM
same,IC50,[3]; [14],15 µM
same,IC50,[9],15 µM
same,IC50,[4]; [16],20 µM
same,IC50,"[5]; Homo sapiens, 72 h",20 µM
same,IC50,[6]; [17],20 µM
same,IC50,[7]; [18],20 µM
